Assay: Human HepG2 cell viability assay in 384 well format
Format: toxicity, cell-based
Design: dose 125 nL, time 70.5 hour; concentration not given beside the values
Settings: HepG2 cells, read-out: Inhibition

SMILES | cytotoxicity at 70.5 h
CSC(C)C(=O)N1CCCN(c2ncccc2C#N)CC1 (configuration not stated) | 12.4%
Cc1ncsc1-c1nnc(C2CCCN2C(=O)CCn2cccn2)o1 (configuration not stated) | -9.26%
Cc1cnn(CC2CCCN2Cc2cc(C)on2)c1 (configuration not stated) | -4.61%
O=C(CCc1ccsc1)NCC1CCN(c2ccccc2)C1 (configuration not stated) | 2.35%
Cc1cc(C(=O)N2C[C@H]3CC[C@@H]2CN(C)C3)ccc1Cl | 29.4%
O=C(c1ccccc1)N1CCOC2(CCN(Cc3cccs3)CC2)C1 | 12.2%
Cc1nc(CN2CC[C@@H]3[C@@H](CCC(=O)N3CCc3c[nH]cn3)C2)co1 | 13%
O=C(C1=CCCCC1)N1CCC2(CC1)COC(COc1ccccn1)C2 (configuration not stated) | -3.14%
CCOCCCC(=O)NCCC(=O)N1CCN(c2ccccn2)CC1 | -13.4%
COc1nc(C)c(C(=O)N2CCc3[nH]nc(Cc4ccccc4)c3C2)s1 | -1.57%
Cc1nc(C2CCCN2C(=O)CCc2ccc(F)cc2)ncc1C(N)=O (configuration not stated) | -10.3%
CC(=O)N1CCC(C(=O)N2CCCC(Cc3cccc(C)n3)C2)CC1 (configuration not stated) | -4.08%
CC(C)c1noc(CNC2CCCN(Cc3noc(C4CC4)n3)C2)n1 (configuration not stated) | -11.4%
CCn1c(CC2CCN(S(=O)(=O)Cc3ccccc3)CC2)nn(C)c1=O | -9.61%
CCC(=O)N1CCN(C(=O)Nc2ccc(Cl)cc2)[C@H]2CS(=O)(=O)C[C@H]21 | -14.3%
Cc1nc(C)n(CC2CCCCN2Cc2nc(-c3ccoc3)no2)n1 (configuration not stated) | -11.8%
CN(Cc1ccccc1)C1(C(=O)NC(CO)CO)Cc2ccccc2C1 | 1.88%
Cc1noc(C2CCC3(CCN(C(=O)C4=CCCCC4)CC3)O2)n1 (configuration not stated) | -6.87%
CCN(Cc1ccoc1)C(=O)c1ccncc1O | -9.48%
CCS(=O)(=O)CC(=O)NC1CCc2nccn2C1 (configuration not stated) | -4.08%
COCCCN1CC2(CCCN(c3ncnc4[nH]cnc34)C2)CCC1=O (configuration not stated) | -6.06%
CCc1cc(N(C)Cc2nonc2C)nc(N2CCOCC2)n1 | 1.99%
Cc1nccn1[C@@H]1CC[C@@H](NC(=O)Cn2c(C)nc3ccccc32)[C@H]1O | 0.7%

SMILES | cytotoxicity at 70.5 h
Cc1cc(NCc2ccc(N3CCNC(=O)C3)cc2)nc(C)n1 | -1.91%
c1coc(CN2CCn3c(CN4CCOCC4)nnc3C2)c1 | -1.27%
COc1cc(C)ccc1OCc1nc(C(=O)N2CCCC2)co1 | 0.58%
CC(C)Cn1c(=O)n(CCn2cc(Cl)cn2)c2cc(C(=O)O)cnc21 | -7.3%
CC1N(c2cnn(C)c2)C(=O)COC12CCN(c1ccccn1)CC2 (configuration not stated) | -2.76%
COCc1cccc(NC(=O)N(C)Cc2ncc(C)c(OC)c2C)c1 | -3.88%
Cc1cnn(CC2CN(CCc3cccs3)CCO2)c1 (configuration not stated) | -2.69%
CN(C)C(=O)N1CCC2(CC(=O)N(c3cccc(C#N)c3)C2)C1 (configuration not stated) | -5.09%
C=C(C)CN(CC)C(=O)c1cc(C)ccc1NS(C)(=O)=O | 3.16%
CC(=O)N1CCC(C(=O)N2CCOC(CC3CCCCC3)C2)CC1 (configuration not stated) | 24.3%
c1cnc(N2CCC3(CCN(CC4CCOC4)CC3)C2)nc1 (configuration not stated) | -1.96%
CC(=O)N1CCC2(CC1)CCN(C(=O)c1cccc(C(F)(F)F)c1)C2 | -13.6%
CCC[C@@H]1CN(c2ncnc3ccsc23)C[C@H]1NS(C)(=O)=O | -8.21%
O=C(O)c1nc(SCc2ccccc2)ncc1Br | -8.29%
Cc1nnc([C@H]2C[C@H]3CN(C(=O)Cc4ccc(F)cc4)CC[C@@H]3O2)o1 | -6.08%
Cn1c2c(ccc1=O)CC(NC(=O)Cc1ccsc1)CC2 (configuration not stated) | -2.49%
COc1ccc(-c2noc(CN3CC(n4cccn4)C3)n2)c(OC)c1 | -7.32%
CN(Cc1cccnc1)[C@@H]1CN(c2ccccn2)[C@@H]2CCCO[C@H]12 | -9.04%
CC(c1ncc(C(C)(C)C)o1)N1CCN(Cc2ccc(Cl)s2)CC1 (configuration not stated) | 16.2%
Cn1ncc(NCc2cccc(COC(C)(C)C)c2)c(Cl)c1=O | 7.28%
Cc1cc(C)c(CNC(=O)NCc2ccc(F)cc2)c(=O)[nH]1 | -3.16%
O=C(Nc1cnn(C2CCOCC2)c1)c1ccc2c(c1)OCO2 | -16%
Cc1cnn(C2CN(Cc3nc(-c4ccco4)no3)C2)c1 | -10.1%

SMILES | cytotoxicity at 70.5 h
CCc1ccccc1CN1CCN(Cc2ncc[nH]2)[C@H]2CS(=O)(=O)C[C@H]21 | -3.46%
CC(=O)N1Cc2ccnn2CC(C(=O)NCc2cccnc2)C1 (configuration not stated) | -6.11%
CN(C)[C@@H]1COC[C@@H]2CN(Cc3ccc4c(c3)OCO4)C[C@@H]21 | -3.34%
CS(=O)(=O)N1CCN(c2cc(N3CCCC3CO)ncn2)CC1 (configuration not stated) | -7.63%
COCC(C)NC(=O)CN1CCCC1 (configuration not stated) | -23.1%
c1cc(CN2CCC3(CCOCC3COCC3CC3)CC2)co1 (configuration not stated) | -4.78%
O=C(NCC1CCCCO1)c1ccc(-c2ccco2)[nH]c1=O (configuration not stated) | -8.49%
CCC(=O)N1CCC2(COCc3c(C)nc(NCc4ccco4)nc32)C1 (configuration not stated) | -6.57%
CN(c1ccc(OCc2cnc(Cl)s2)cc1)S(C)(=O)=O | 5.74%
O=C(CNc1cc(F)ccc1OCC1CCCO1)N1CCOCC1 (configuration not stated) | -0.218%
CCc1nc(CN2CCCC(N(C)CCc3cccs3)C2)no1 (configuration not stated) | 21.1%
O=C(NCc1cc2n(n1)CCCNC2)C1(c2ccccc2)CCCCC1 | 0.103%
O=C(CCc1ccc(Cl)cc1)N1CCC(O)(C(F)(F)F)C1 (configuration not stated) | -6.2%
c1cc2ccc(N3CCN(Cc4ccc5c(c4)OCO5)CC3)nc2[nH]1 | -4.53%
CCN1CCN(CCCNC(=O)NC(C)c2nncn2C)CC1 (configuration not stated) | 2.39%
O=C(CCO)N1CC[C@@H]2CN(C(=O)c3ccco3)CCO[C@@H]2C1 | -4.78%
Cn1cc(CN2CC[C@]3(C[C@H](Oc4ccccn4)CO3)C2)cn1 | -6.32%
CC1CCCN(c2ccc(C(N)=O)cc2NC(=O)CC2=CCNCC2)C1 (configuration not stated) | -17.5%
Cc1cccnc1NC(=O)NCc1ccc(N2CCNC(=O)C2)cc1 | -10.1%
O=C(N1CCOCC1)N1CCc2[nH]nc(COc3cccc(Cl)c3)c2C1 | -2.78%
N#Cc1ccc(OCCOc2ccccc2C(=O)N2CCOCC2)cc1 | -9.24%
Cc1ccsc1C(=O)NC1CCN(c2cnn(C)c2)C1=O (configuration not stated) | 17.9%
CSc1nnc(CNC(=O)Nc2ccccc2F)n1C | -7.23%

SMILES | cytotoxicity at 70.5 h
CNC(=O)N1C[C@H]2N(c3ncccn3)CCC[C@@]2(C(=O)NCC2CC2)C1 | 0.471%
CCn1cc2c(n1)CN(CC1CC1)CC2COCC1CC1 (configuration not stated) | -15%
CC(C)OCc1ccc(CNC(=O)NC2(CO)CCCC2)cc1 | -10.3%
O=C(NCCn1cccc1)C1CCCOC1 (configuration not stated) | -5.7%
O=C1CCCc2occ(C(=O)N3CCCC(O)(CO)C3)c21 (configuration not stated) | 31%
Cc1ccc(CN2CCC3(CCCN3C(=O)C(C)C)CC2)o1 | 5%
CN(C)CCCNC(=O)c1ccnc(OCc2ccccc2)c1 | -1.38%
O=C1CN(c2ccc(CNc3cncc(-n4cccn4)n3)cc2)CCN1 | -0.149%
Cc1ccc(C(=O)NCCCNc2ccc(C(F)(F)F)cn2)cc1 | -9.05%
O=C(Nc1cccnc1)[C@H]1C[C@H]2OCC[C@H]2N(Cc2ccc(F)cc2)C1 | -10%
CN1CCC(Nc2ccc(F)cc2OCC(F)(F)F)C1=O (configuration not stated) | -0.0891%
CC1COCCN1c1ncnc2sccc12 (configuration not stated) | 6.87%
CNC(=O)CC1CC2(CCN(Cc3nccs3)CC2)c2ccccc21 (configuration not stated) | 0.687%
Cc1occc1C(=O)N1CCC(C(O)c2ccc(F)cc2)CC1 (configuration not stated) | -4.29%
CCN1C[C@H]2[C@@H](C1)N(S(=O)(=O)c1cccnc1)CC[C@H]2OC | 45.6%
CCN1CCN(C(=O)CCn2cccc2)CC1 | -12.8%
CSC(C)C(=O)Nc1ccnn1-c1ccccc1C (configuration not stated) | 31.2%
COc1cc(OCC(=O)NCCc2ccccc2)cc(OC)c1OC | -5.97%
CCN(CC)Cc1cc(C(=O)N2CC[C@@]3(O)CCCC[C@H]3C2)c(C)o1 | -9.79%
O=C(Nc1ccc2c(c1)OCO2)c1ccc(N2CCCC2)nn1 | 20.4%
CCCn1ccc2ccc(NC(=O)N(C)CCOC)cc21 | -1.44%
O=C(O)c1ccccc1-c1ccc(CN2CCC(CO)CC2)cn1 | -9.48%
O=C(Cc1ccc(Cl)cc1)N1CCC(O)(C(F)(F)F)C1 (configuration not stated) | -2.11%

SMILES | cytotoxicity at 70.5 h
CCC1CCCCN1S(=O)(=O)c1c(C)noc1C (configuration not stated) | -7.69%
FC(F)(F)CCc1ccnc(N2CCN(Cc3ccccn3)CC2)n1 | 6.16%
CCCc1nc(C)cc(N2CCNC(C(=O)NCc3cccnc3)C2)n1 (configuration not stated) | 31%
O=C(OCCNc1ncccn1)c1ccc(Cl)s1 | -3.07%
CC(C)c1cc(NC(=O)CN2CCCC(Cn3cncn3)C2)on1 (configuration not stated) | 17.9%
Cc1cc(C(=O)N2CCNC(=O)C2)c(C)n1CC(F)(F)F | 26.8%
O=C1CCN(C(=O)NCc2ccccc2Oc2ccccc2)CCN1 | 2.87%
Cc1cnn(CC2CCCN2C(=O)c2cc(Cl)ccc2F)c1 (configuration not stated) | 28.1%
c1ccc(CN2CCOC[C@H]2c2nc(-c3ccncc3)c[nH]2)nc1 | 1.25%
CCN(Cc1ccncc1)CC1(O)CCN(C(=O)c2cccc(C)n2)C1 (configuration not stated) | -4.96%
CN1CC(=O)N(c2cccc(F)c2)CC12CCN(CC1CC1)C2 (configuration not stated) | -3.68%
Cc1nc(CN2CCCN(C(=O)c3cccn3C)CC2)cs1 | 1.17%
Cc1cc(C(=O)N2CC[C@H](OCC3CC3)[C@@H]2Cc2cccnc2)no1 | -4.43%
Cc1ccc2c(c1)OC(C)CN2C(=O)CCc1cscn1 (configuration not stated) | 0.46%
CCN(CCn1cccn1)Cc1nc(-c2ccoc2)oc1C | 14%
O=C(CN1CCCC1Cn1cccn1)NCCOc1cccc(F)c1 (configuration not stated) | -0.693%
CCCS(=O)(=O)N1C[C@@H](c2ccccc2)[C@@]2(CCNC2=O)C1 | 5.81%
CCn1cc(CN2CCCN(C(=O)C3(C)CCOCC3)CC2)cn1 | -10.2%
Cc1cnc(NCc2csc(C(C)C)n2)nc1-c1cnn(C)c1 | -14.9%
O=C(Cn1ccc2ccccc21)Nc1cc(N2CCCC2)ncn1 | 3.21%

— ChEMBL document CHEMBL3507680, “University of Dundee, Gates Library screen for HepG2 cell viability”
